This is an account of results in patent US12180226B2, “Spirotricycle RIPK1 inhibitors and methods of uses thereof” (Merck Sharp & Dohme LLC, priority 2021, dated 2024).

Where a name gives a salt, the structure may show the parent alone.

In this assay the target is RIPK1 (recombinant GST-RIPK1 kinase domain, residues 1-327) (Homo sapiens (Human), UniProt Q13546). Briefly: RIPK1-ADP-Glo Enzymatic Assay. The format is biochemical. Particulars: ADP-Glo; 25 nM GST-RIPK1, 300 μM ATP; assay lower limit ~25 nM; read-out: RIPK1 V0 Ec50. In short, it runs like this:
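Inhibition of ADP formation was measured after compound and enzyme (25 nM) were pre-incubated for 30 minutes at ambient temperature and the kinase reaction ran for 150 minutes at 300 μM ATP with dephosphorylated MBP substrate. EC50 values come from ten-point curves fitted non-linearly.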
Background: ADP-Glo first removes unused ATP, then detects ADP through luciferase.

Chain of RIPK1 (recombinant GST-RIPK1 kinase domain, residues 1-327) (Q13546 1-327): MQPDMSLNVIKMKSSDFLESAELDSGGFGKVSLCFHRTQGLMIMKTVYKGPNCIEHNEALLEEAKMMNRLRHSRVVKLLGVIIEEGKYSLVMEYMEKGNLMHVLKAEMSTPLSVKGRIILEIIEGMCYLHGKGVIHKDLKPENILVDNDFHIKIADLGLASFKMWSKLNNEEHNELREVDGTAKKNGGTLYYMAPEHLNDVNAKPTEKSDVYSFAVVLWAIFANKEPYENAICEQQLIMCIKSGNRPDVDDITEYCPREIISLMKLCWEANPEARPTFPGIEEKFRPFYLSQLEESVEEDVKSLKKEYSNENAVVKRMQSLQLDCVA

Turning to `CSc1cnc(N2CCC3(CC2)O[C@@H]2CC[C@@H](c4cc(F)cc(F)c4)N2C3=O)nc1` [Example 4.55, (5′S,7a′R)-5′-(3,5-difluorophenyl)-1-[5-(methylsulfanyl)pyrimidin-2-yl]tetrahydro-3′H-spiro[piperidine-4,2′-pyrrolo[2,1-b] [1,3]oxazol]-3′-one], the concentration for a half-maximal effect (EC50) was determined as 246 nM.
On to `O=C1N2[C@@H](CC[C@H]2c2ccccc2F)OC12CCN(c1ccnc3ccnn13)CC2` [Example 4.103, (5′S,7a′R)-5′-(2-fluorophenyl)-1-(pyrazolo[1,5-a]pyrimidin-7-yl)tetrahydro-3′H-spiro[piperidine-4,2′-pyrrolo[2,1-b]oxazol]-3′-one], for which the EC50 was under 25 nM.
As to `O=C(c1cc(Cl)ccc1F)N1CCC2(CC1)O[C@@H]1CC[C@@H](c3ccccc3F)N1C2=O` [Example 1.14, (5′S,7a′R)-1-(5-chloro-2-fluorobenzoyl)-5′-(2-fluorophenyl)tetrahydro-3′H-spiro[piperidine-4,2′-pyrrolo[2,1-b]oxazol]-3′-one], the EC50 was under 25 nM.
As to `N#Cc1cnc(N2CCC3(CC2)S[C@@H]2CC[C@@H](c4ccccc4)N2C3=O)n2ncnc12` [Example 4.146, 5-[(5′S,7a′R)-3′-oxo-5′-phenyltetrahydro-1H,3′H-spiro[piperidine-4,2′-pyrrolo[2,1-b] [1,3]thiazol]-1-yl] [1,2,4]triazolo[1,5-c] pyrimidine-8-carbonitrile], the EC50 is under 25 nM.
To `CC(C)(C)OC(=O)/C=C/c1ccc(N2CCC3(CC2)O[C@@H]2CC[C@@H](c4ccccc4)N2C3=O)nc1` [Example 4.163, tert-butyl (2E)-3-{6-[(5′S,7a′R)-3′-oxo-5′-phenyltetrahydro-1H,3′H-spiro[piperidine-4,2′-pyrrolo[2,1-b] [1,3]oxazol]-1-yl]pyridin-3-yl}prop-2-enoate] belongs 30.3 nM.
To `N#Cc1ccc(N2CCC3(CC2)O[C@@H]2CC[C@@H](c4cc(F)cc(F)c4)N2C3=O)n2ncnc12` [Example 14.2, 5-((5′S,7a′R)-5′-(3,5-difluorophenyl)-3′-oxotetrahydro-3′H-spiro[piperidine-4,2′-pyrrolo[2,1-b]oxazol]-1-yl)-[1,2,4]triazolo[1,5-a]pyridine-8-carbonitrile, TFA salt] belongs under 25 nM.
In the case of `C#Cc1cnc(N2CCC3(CC2)O[C@@H]2CC[C@@H](c4ccccc4)N2C3=O)n2ncnc12` [Example 21.23, (5′S,7a′R)-1-(8-ethynyl[1,2,4]triazolo [1,5-c]pyrimidin-5-yl)-5′-phenyltetrahydro-3′H-spiro[piperidine-4,2′-pyrrolo[2,1-b][1,3]oxazol]-3′-one], the EC50 is under 25 nM.
On to `Cn1nc(N2CCC3(CC2)O[C@@H]2CC[C@@H](c4ccccc4)N2C3=O)ccc1=O` [Example 11.7, (5′S,7a′R)-1-(1-methyl-6-oxo-1,6-dihydropyridazin-3-yl)-5′-phenyltetrahydro-3′H-spiro[piperidine-4,2′-pyrrolo[2,1-b][1,3]oxazol]-3′-one], for which the EC50 stood at 91.3 nM.
For the compound `O=C(c1ccc(Cl)cc1F)N1CCC2(CC1)O[C@@H]1CC[C@@H](c3cc(F)cc(F)c3)N1C2=O` [Example 5.59, (5′S,7a′R)-1-(4-chloro-2-fluorobenzoyl)-5′-(3,5-difluorophenyl)tetrahydro-3′H-spiro[piperidine-4,2′-pyrrolo[2,1-b]oxazol]-3′-one], the EC50 was under 25 nM.
To `N#Cc1cccc(C(=O)N2CCC3(CC2)O[C@@H]2CC[C@@H](c4ccccc4)N2C3=O)c1` [Example 6.153, 3-[(5′S,7a′R)-3′-oxo-5′-phenyltetrahydro-1H,3′H-spiro[piperi-dine-4,2′-pyrrolo[2,1-b][1,3]oxazole]-1-carbonyl]benzonitrile] belongs under 25 nM.
To `COc1ccc(N2CCC3(CC2)O[C@@H]2CC[C@@H](c4cc(F)cc(F)c4)N2C3=O)n2nccc12` [Example 19.1, (5′S,7a′R)-5′-(3,5-Difluorophenyl)-1-(4-methoxypyrazolo[1,5-a]pyridin-7-yl)tetrahydro-3′H-spiro[piperidine-4,2′-pyrrolo[2,1-b]oxazol]-3′-one, TFA] belongs under 25 nM; to `O=C1N2[C@@H](CC[C@H]2c2cc(F)cc(F)c2)OC12CCN(c1ccnc3ccnn13)CC2` [Example 4.6, (5′S,7a′R)-5′-(3,5-difluorophenyl)-1-(pyrazolo[1,5-a]pyrimidin-7-yl)tetrahydro-3′H-spiro[piperidine-4,2′-pyrrolo[2,1-b] [1,3]oxazol]-3′-one], under 25 nM; to `COC(=O)c1cnc(N2CCC3(CC2)O[C@@H]2CC[C@@H](c4ccccc4)N2C3=O)cc1OC` [Example 4.210, methyl 4-methoxy-6-[(5′S,7a′R)-3′-oxo-5′-phenyltetrahydro-1H,3′H-spiro[piperidine-4,2′-pyrrolo[2,1-b] [1,3]oxazol]-1-yl]pyridine-3-carboxylate], 76 nM.
As for `CC1CN(C(=O)c2ccccc2)CCC12O[C@@H]1CC[C@@H](c3cc(F)cc(F)c3)N1C2=O` (single isomer, unassigned) [Example 2.5, (3[S or R],4[R or S], 5′S,7a′R)-1-benzoyl-5′-(3,5-difluorophenyl)-3-methyltetrahydro-3′H-spiro[piperidine-4,2′-pyrrolo[2,1-b]oxazol]-3′-one], the EC50 was determined as 40.7 nM.
`Cc1ccc(C(=O)N2CCC3(CC2)O[C@@H]2CC[C@@H](c4cc(F)cc(F)c4)N2C3=O)nc1C` [Example 6.93, (5′S,7a′R)-5′-(3,5-difluorophenyl)-1-(5,6-dimethylpyridine-2-carbonyl)tetrahydro-3′H-spiro[piperidine-4,2′-pyrrolo[2,1-b] [1,3]oxazol]-3′-one]: the half-maximal effective concentration (EC50) worked out at 192 nM.
The same measure for `C#Cc1cccc(C(=O)N2CCC3(CC2)O[C@@H]2CC[C@@H](c4cc(F)cc(F)c4)N2C3=O)c1` [Example 5.25, (5′S,7a′R)-5′-(3,5-difluoro-phenyl)-1-(3-ethynyl-benzoyl)tetrahydro-3′H-spiro[piperidine-4,2′-pyrrolo[2,1-b]oxazol]-3′-one]: under 25 nM; for `O=C(c1ccccc1)N1CCC2(CC1)O[C@@H]1CC[C@@H](c3ccc4sccc4c3)N1C2=O` [Example 17.2, (5′S,7a′R)-5′-(benzo[b]thiophen-5-yl)-1-benzoyltetrahydro-3′H-spiro[piperidine-4,2′-pyrrolo[2,1-b]oxazol]-3′-one]: 26.1 nM.
`Cc1ccccc1S(=O)(=O)N1CCC2(CC1)O[C@@H]1CC[C@@H](c3cc(F)cc(F)c3)N1C2=O` [Example 8.2, (5′S,7a′R)-5′-(3,5-difluorophenyl)-1-[(2-methylphenyl)sulfonyl] tetrahydro-3′H-spiro[piperidine-4,2′-pyrrolo[2,1-b][1,3]oxazol]-3′-one]: the EC50 amounted to 685 nM.
The same measure for `N#Cc1ccc(N2CCC3(O[C@@H]4CC[C@@H](c5ccccc5)N4C3=O)C(F)C2)n2ncnc12` (stereo partly drawn) [Example 4.258, 5-[(5′S,7a′R)-3-fluoro-3′-oxo-5′-phenyltetrahydro-1H,3′H-spiro[piperidine-4,2′-pyrrolo[2,1-b] [1,3]oxazol]-1-yl][1,2,4]triazolo[1,5-a] pyridine-8-carbonitrile]: under 25 nM; for `COc1cccc(C(=O)N2CCC3(CC2)O[C@@H]2CC[C@@H](c4cc(F)cc(F)c4)N2C3=O)c1F` [Example 6.7, (5′S,7a′R)-5′-(3,5-difluorophenyl)-1-(2-fluoro-3-methoxy-benzene-1-carbonyl) tetrahydro-3′H-spiro [piperidine-4,2′-pyrrolo[2,1-b][1,3]oxazol]-3′-one]: under 25 nM.
For `Cc1nc(C(=O)N2CCC3(CC2)O[C@@H]2CC[C@@H](c4cc(F)cc(F)c4)N2C3=O)no1` [Example 6.20, (5′S,7a′R)-5′-(3,5-difluorophenyl)-1-(5-methyl-1,2,4-oxadi-azole-3-carbonyl)-tetrahydro-3′H-spiro [piperidine-4,2′-pyrrolo[2,1-b][1,3]oxazol]-3′-one], the EC50 is 136 nM.
As for `O=C1N2[C@@H](CC[C@H]2c2ccccc2F)OC12CCN(c1ncnc3ccnn13)CC2` [Example 4.252, (5′S,7a′R)-5′-(2-fluorophenyl)-1-(pyrazolo[1,5-a] [1,3,5]triazin-4-yl)tetrahydro-3′H-spiro[piperidine-4,2′-pyrrolo[2,1-b] [1,3]oxazol]-3′-one], the EC50 is under 25 nM.
To `Cn1ccc(C(=O)N2CCC3(CC2)O[C@@H]2CC[C@@H](c4cc(F)cc(F)c4)N2C3=O)c1` [Example 5.47, (5′S,7a′R)-5′-(3,5-difluoro-phenyl)-1-(1-methyl-1H-pyrrole-3-carbonyl)tetra-hydro-3′H-spiro[piperidine-4,2′-pyrrolo[2,1-b]oxazol]-3′-one] belongs 26.9 nM; to `O=C1N2[C@@H](CC[C@H]2c2ccccc2)OC12CCN(c1ncnc3c(F)cnn13)CC2` [Example 4.233, (5′S,7a′R)-1-(8-fluoropyrazolo[1,5-a] [1,3,5]triazin-4-yl)-5′-phenyltetrahydro-3′H-spiro[piperidine-4,2′-pyrrolo[2,1-b] [1,3]oxazol]-3′-one], under 25 nM.
Turning to `O=C1N2[C@@H](CC[C@H]2c2ccccc2)OC12CCN(c1ncccc1Cl)CC2` [Example 4.256, (5′S,7a′R)-1-(3-chloropyridin-2-yl)-5′-phenyltetrahydro-3′H-spiro[piperidine-4,2′-pyrrolo[2,1-b] [1,3]oxazol]-3′-one], the EC50 worked out at 25 nM.
Take `O=C1N2[C@@H](CC[C@H]2c2cc(F)cc(F)c2)OC12CCN(S(=O)(=O)c1cccc(F)c1)CC2` [Example 8.4, (5′S,7a′R)-5′-(3,5-difluorophenyl)-1-[(3-fluorophenyl)sulfonyl] tetrahydro-3′H-spiro[piperidine-4,2′-pyrrolo[2,1-b][1,3]oxazol]-3′-one]: the EC50 was determined as 672 nM.

A word on the EC50: it is the midpoint of the concentration-response curve.
